In brackets after ≈: the same amount, converted by molar mass. Where two headings read alike, the source gives them in different places.
How the values were obtained:
L1210 cells [1] = details: Kor. J. Pharm. Soc., 34, 262-266 (1990); cited from earlier work
A549 cancer cells = experiment: Cytotoxic activity against A549 cancer cells (sulforhodamin B method); assay type: cell-based; details: Homo sapiens; A549 cells, SRB method, 48 hours; read-out: ED50, cytotoxic activity against A549
Outline: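 Cells seeded at 8×10^4 per well, attached 24 h, then exposed 48 h to six log-spaced concentrations in triplicate. TCA-fixed, SRB-stained, OD read at 520 nm; growth inhibition computed relative to time-zero and untreated counts, IC50 from regression.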

L1210 cells [2] = experiment: Cytotoxic activity against L1210 cells; assay type: cell-based; details: Mus musculus; L1210 cells, 48 hours, 37° C.; read-out: ED50, cytotoxic activity against L1210
Outline: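 Log-phase L1210 cells (5×10^4 cells/ml) in Fisher medium exposed 48 h at 37 °C in CO2 to three dilutions of sample dissolved in ethanol or DMSO. Cells counted by haemacytometer; growth relative to control; ED50 (μg/ml) from linear regression of growth % on log concentration.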

S-180 sarcoma = details: Kor. J. Pharm. Soc., 34, 262-266 (1990); cited from earlier work
HL-60 cells = experiment: Cytotoxic activity against HL-60 cells; assay type: cell-based; details: Homo sapiens; HL-60 cells, 48 hours, 37° C.; read-out: ED50, cytotoxic activity against HL-60
Procedure: As in the test for the cytotoxic activity against L1210 cells, the test samples were dissoved in ethanol or dimethylsulfoxide in a certain concentration. 0.1 ml of the sample solution was mixed with 0.9 ml of a fresh medium to prepare the dilutions. To each two test tubes having a screw cap were added 100, 50, 25 μl, respectively, of the sample dilutions by means of a micropipet. To each test tube for the test group and the control group (2√n: n=number of the samples) was added 5 ml of the dilutions of HL-60 cells and K-562 cells which were cultured and activated before 24 hours from the beginning of experiment and then diluted in a concentration of 1×10^5 cells/mi. All test tubes were cultured for 48 hours in a CO2 incubator at 37° C. and then the number of cells was counted using a haemacytometer.
The ED50 value is defined as a concentration (μg/ml) of the sample which inhibits the growth of cancer cells by 50% of the control group and determined according to a method described in NIC's mannual (NIC=National Cancer Institue, U.S.A.). The growth rate Y(%) of cells in the presence of the test sample in each concentration was calculated according to the followign equation: […]
In the above equation, T means the average cell number per ml in the test group after incubation for 48 hours in the presence of the test samples in each concentration, C means the average cell number per ml in the control group after incubation for 48 hours, and Co means the average cell number per ml in the control group at the beginning of incubation. The Y(%) value at each concentration and log10 value of each concentration were obtained and the regression curve was constructed according to the following equation from those obtained values. In this case, when all the Y(%) value obtained at each concentration is greater than 55% or lower than 45%, the experiment was repeatedly conducted.
To construct the regression curve Y=A+BX the values A and B were obtained using the following equation. [formula]
In the above, the value N is the number of selected points which is greater than 2 and lower than, or identical with, the number of cencentration of the test sample, Xi is log(concentration) i, and Yi is the growth ratio at (concentration)i. The value of ED50 was obtained for those obtained slope and intercept.

S-180 sarcoma cells = experiment: Animal experiment using Sarcoma S-180 cells (survival of mouse); assay type: in vivo, male ICR mouse; details: for responders at 15 µmol/kg / response vs control in vivo at 15 µmol/kg: daily dose 15 μmole (mg/kg/day given per compound)
Outline: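 Male ICR mice (20 to 25 g) received intraperitoneal transplants of 0.1 ml S-180 cell suspension (10^7 cells/ml), prepared from ascites by washing in cold physiological saline. After 24 hours, groups of 8 to 9 mice received 7 to 8 ip injections of sample in dimethylsulfoxide diluted with saline. Controls got 2% dimethylsulfoxide-saline. Survival (T/C, %) was scored against control death.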

K-562 cells = experiment: Cytotoxic activity against K-562 cells; assay type: cell-based; details: Homo sapiens, K562, 48 h, read-out: ED50, cytotoxic activity against K562
Outline: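 HL-60 and K-562 cells (1×10^5 cells/ml) incubated 48 h at 37° C with sample dilutions from ethanol or DMSO stocks; cells counted by haemacytometer. ED50 (μg/ml) is the concentration giving 50% growth inhibition versus control, taken from linear regression of growth rate against log concentration.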

S-180 ascitic cancer = details: mouse suffering from S-180 ascitic cancer; Chem. Pharm. Bull. 25, 2392-2395 (1977); cited from earlier work
L1210 cancer = details: Chem. Pharm. Bull. 25, 2392-2395 (1977); cited from earlier work
[3] = Mus musculus, S-180, ip, 1200 h, read-out: Number of mouse survived for 50 days
[4] = ip, 1200 h, S-180 ICR mouse, intraperitoneal, 7 to 8 injections, read-out: Number of mouse survived for 50 days (converted)
[5] = ip, S-180 ICR mouse, intraperitoneal, 7 to 8 injections, read-out: T/C
[6] = ip, 1200 h, S-180 ICR mouse, intraperitoneal, daily dose 10 μmole (mg/kg/day given per compound), 7 to 8 injections, read-out: Number of mouse survived for 50 days (converted)
[7] = ip, S-180 ICR mouse, intraperitoneal, daily dose 10 μmole (mg/kg/day given per compound), 7 to 8 injections, read-out: T/C

| Structure (SMILES) | IC50 (A549 cancer cells) [µg/mL] | IC50 (L1210 cells [2]) [µg/mL] | IC50 (HL-60 cells) [µg/mL] | responders at 15 µmol/kg (S-180 sarcoma cells; [4]) [%] | response vs control in vivo at 15 µmol/kg (S-180 sarcoma cells; [5]) [%] | responders at 10 µmol/kg (S-180 sarcoma cells; [6]) [%] | response vs control in vivo at 10 µmol/kg (S-180 sarcoma cells; [7]) [%] | also measured |
| --- | --- | --- | --- | --- | --- | --- | --- | --- |
| CC(=O)OC(CC=C(C)C)C1=CC(=O)c2c(O)ccc(O)c2C1=O (stereo not shown) [2-(1-acetyloxy-4-methyl-3-pentenyl)-5,8-dihydroxy-1,4-naphthoquinone] | 1 (≈ 3.03 µM) | < 0.01 | 0.06 (≈ 0.182 µM) |  |  |  |  | ED50 value against L1210 cells (L1210 cells [1]): 0.01 µg/mL (≈ 0.0303 µM); LSI in mouse suffering from S-180 sarcoma (S-180 sarcoma): 85%; responders at 5 µmol/kg (S-180 sarcoma cells; [3]): 0%; response vs control in vivo at 5 µmol/kg (S-180 sarcoma cells; ip, S-180 ICR mouse, intraperitoneal, daily dose 5 μmole (mg/kg/day given per compound), 7 to 8 injections, read-out: T/C): 160% |
| C=CCCCCCCCCC(=O)OC(CC=C(C)C)C1=CC(=O)c2c(O)ccc(O)c2C1=O (stereo not shown) [2-(1-undecylenoyloxy-4-methyl-3-pentenyl)-5,8-dihydroxy-1,4-naphthoquinone] | 6.7 (≈ 14.7 µM) | 0.01 (≈ 0.022 µM) | 0.3 (≈ 0.66 µM) | 0 | 110 |  |  |  |
| CC=CC=CC(=O)OC(CC=C(C)C)C1=CC(=O)c2c(O)ccc(O)c2C1=O (stereo not shown) [2-[1-(2,4-hexadienoyloxy)-4-methyl-3-pentenyl]-5,8-dihydroxy-1,4-naphthoquinone] | 0.7 (≈ 1.83 µM) | 0.5 (≈ 1.31 µM) | 0.6 (≈ 1.57 µM) |  |  | 25 | 185 |  |
| CC(C)=CCC(OC(=O)C=C(C)C)C1=CC(=O)c2c(O)ccc(O)c2C1=O (stereo not shown) [2-[1-(3,3-dimethyl)acryloxy-4-methyl-3-pentenyl]-5,8-dihydroxy-1,4-naphthoquinone] | 1.1 (≈ 2.97 µM) | < 0.01 | 0.05 (≈ 0.135 µM) |  |  |  |  | responders at 10 µmol/kg (S-180 sarcoma cells; [3]): 25%; response vs control in vivo at 10 µmol/kg (S-180 sarcoma cells; Mus musculus, S-180, ip, read-out: T/C): 179% |
| C=CCCC(=O)OC(CC=C(C)C)C1=CC(=O)c2c(O)ccc(O)c2C1=O (stereo not shown) [2-[1-(4-pentenoyl)oxy-4-methyl-3-pentenyl]-5,8-dihydroxy-1,4-naphthoquinone] | 1 (≈ 2.7 µM) | 0.02 (≈ 0.054 µM) | 0.5 (≈ 1.35 µM) |  |  | 14.3 | 180 |  |
| C=CCCCCC(=O)OC(CC=C(C)C)C1=CC(=O)c2c(O)ccc(O)c2C1=O (stereo not shown) [2-[1-(6-heptenoyl)oxy-4-methyl-3-pentenyl]-5,8-dihydroxy-1,4-naphthoquinone] | 4.2 (≈ 10.5 µM) | 0.2 (≈ 0.502 µM) | 0.5 (≈ 1.25 µM) |  |  | 12.5 | 192 |  |
| CCCCCC=CCC=CCCCCCCCC(=O)OC(CC=C(C)C)C1=CC(=O)c2c(O)ccc(O)c2C1=O (stereo not shown) [2-[1-(9,12-octadecadinoyloxy-4-methyl-3-pentenyl]-5,8-dihydroxy-1,4-naphthoquinone] | > 20 | 5 (≈ 9.08 µM) | 12.5 (≈ 22.7 µM) | 0 | 100 |  |  |  |
| CC(C)=CCC(OC(=O)C=C(C)C=CC=C(C)C=CC1=C(C)CCCC1(C)C)C1=CC(=O)c2c(O)ccc(O)c2C1=O (stereo not drawn) [2-[1-(cis-retinoyl)oxy-4-methyl-3-pentenyl]-5,8-dihydroxy-1,4-naphthoquinone] | > 20 | 7.1 (≈ 12.4 µM) | 6.6 (≈ 11.6 µM) | 0 | 125 |  |  |  |
| C=CCC/C=C/C(=O)OC(CC=C(C)C)C1=CC(=O)c2c(O)ccc(O)c2C1=O (stereo not drawn) [2-[1-(trans-2,6-heptadienoyloxy)-4-methyl-3-pentenyl]-5,8-dihydroxy-1,4-naphthoquinone] | 3.8 (≈ 9.59 µM) | 1.3 (≈ 3.28 µM) | 0.9 (≈ 2.27 µM) |  |  | 12.5 | 180 |  |
| CC/C=C/C(=O)OC(CC=C(C)C)C1=CC(=O)c2c(O)ccc(O)c2C1=O (stereo not drawn) [2-[1-(trans-2-pentenoyloxy)-4-methyl-3-pentenyl]-5,8-dihydroxy-1,4-naphthoquinone] | 1.1 (≈ 2.97 µM) | 0.4 (≈ 1.08 µM) | 0.9 (≈ 2.43 µM) | 14.3 | 210 |  |  |  |
| CCC/C=C/C(=O)OC(CC=C(C)C)C1=CC(=O)c2c(O)ccc(O)c2C1=O (stereo not drawn) [2-[1-trans-(2-hexenoyl)oxy-4-methyl-3-pentenyl]-5,8-dihydroxy-1,4-naphthoquinone] | 1.6 (≈ 4.16 µM) | 0.5 (≈ 1.3 µM) | 1 (≈ 2.6 µM) |  |  | 12.5 | 160 |  |
| CC/C=C/CC(=O)OC(CC=C(C)C)C1=CC(=O)c2c(O)ccc(O)c2C1=O (stereo not drawn) [2-[1-trans-(3-hexenoyl)oxy-4-methyl-3-pentenyl]-5,8-dihydroxy-1,4-naphthoquinone] | 3.3 (≈ 8.58 µM) | 0.3 (≈ 0.78 µM) | 0.9 (≈ 2.34 µM) |  |  | 25 | 200 |  |
| CC(C)=CCC(OC(=O)/C=C(C)/C=C/C=C(C)/C=C/C1=C(C)CCCC1(C)C)C1=CC(=O)c2c(O)ccc(O)c2C1=O (stereo not drawn) [2-[1-trans-retinoyloxy)-4-methyl-3-pentenyl]-5,8-dihydroxy-1,4-naphthoquinone] | > 20 | 3.1 (≈ 5.43 µM) | 4.3 (≈ 7.53 µM) | 0 | 107 |  |  |  |
| O=c1[nH]cc(F)c(=O)[nH]1 [5-Fluorouracil, reference compound] | 3.7 (≈ 28.4 µM) | 0.02 (≈ 0.154 µM) | 0.2 (≈ 1.54 µM) |  |  |  |  | IC50 (K-562 cells): 1 µg/mL (≈ 7.69 µM) |
| CC(C)=CC[C@@H](O)C1=CC(=O)c2c(O)ccc(O)c2C1=O [shikonin] |  |  |  |  |  |  |  | increase in life span (LSI) (S-180 ascitic cancer): 92%; effect in mouse suffering from L1210 cancer (L1210 cancer): does not show a significant effect |

From patent US5696276A, “Process for preparing 5,8-dihydroxynaphthoquinone derivatives, novel 5,8-dihydroxynaphthoquinone derivatives and their use as anticancer agent” (Kuhnil Pharmaceutical Co., Ltd., priority 1993, dated 1997)
